Experimental data: article PMC10955247, “In vivo screening for toxicity-modulating drug interactions identifies antagonism that protects against ototoxicity in zebrafish” (Frontiers in Pharmacology, 2024)
pEC50: −log10 of the molar value. Structures can show the parent of a compound that is named as a salt.

Experiments:
[1] = system: zebrafish lateral line hair cells; assay: PEPITA quantification of ototoxicity in YO-PRO-1-stained AB zebrafish larvae; assay type: in vivo
Procedure: Therefore, at 5 dpf, larvae were transferred to 12-well plates (5–11 fish per well, 1 well per condition) containing the relevant compound or combination diluted with ICS water, or ICS water alone or high-dose neomycin to serve as controls. Unless otherwise noted, fish were exposed to drug (either an individual compound or a pairwise combination of compounds) for 4 h, as a balance between longer exposure times for accommodating varied kill kinetics and shorter exposure times for technical tractability. Treatments with multiple drugs involved co-administering a prepared solution consisting of both drugs with defined concentrations in ICS water.
Fluorescence microscopy was performed using a Keyence BZ-X800 microscope imaging system, which enables high-throughput semi-automated imaging of 96-well plates.
(§1) Each image was masked using automated object detection to include only the fish itself. Manual masks were created on occasion for avoidance of fluorescent contamination, adjusted segmenting for myo6b::gfp fish to remove inner ear HC fluorescence, or exclusion of dead or damaged fish. Each fish was then adjusted for autofluorescence using the fluorophore-free red channel and scored based on the sum of green fluorescence pixel values surrounding 10 of the top 15 brightest pixels in the masked image (Figures 1B–E). These scores were standardized by comparison with the median score of wells containing untreated fish and a score representing no remaining HC fluorescence, both derived for each plate.
Wells where the expected response ( Ra×Rb ) and observed response ( Rab ) were both less than 10% or greater than 90% were excluded from aggregation to reduce the effect of our choice of dose range. The remaining wells were summarized by averaging into a composite interaction score for the combination; we refer to this metric as the “windowed excess over Bliss” (wEOB).

[2] = system: zebrafish lateral line hair cells; assay: Standard assay: manual hair cell counting from individual neuromasts (confocal); assay type: in vivo, Danio rerio; settings: same representative experiment as PEPITA curve; read-out: EC50 (Standard Assay, normalized HC counts from individual neuromasts)
Procedure: To prepare the fish for confocal microscopy, fish were fixed in 2% paraformaldehyde for 1 hour at room temperature as described previously ([Philip et al., 2018]), before being transferred to fluoromount and mounted between two glass coverslips. To avoid crushing the fish, a dot of nail polish was placed on each corner of the coverslip so that the top coverslip sat slightly above the bottom coverslip where the fish was mounted. Fluorescent confocal microscopy was performed using a Leica Stellaris 8 microscope. Cranial lateral line neuromasts of each fish were imaged under an HC PL APO CS2 40x/1.30 oil objective with a 405 nm laser and 541/47 emission filter. Images were taken as z-stacks in 0.66 µm steps. Stacks were transformed into average intensity projections and prepared for visual analysis in ImageJ.
For hair cell survival quantification from individual neuromasts, trained observers counted surviving hair cells in confocal images of neuromasts of larvae that had been treated with various doses of neomycin. Two to eight neuromasts were scored per condition, and counts for each neuromast were averaged between two scorers. These counts were divided by previously characterized mean hair cell counts ([Harris et al., 2003]), matched by anatomical position, to yield a position-scaled measure of HCs present in each neuromast. […]

[3] = system: zebrafish lateral line hair cells; assay: Ototoxic dose response in myo6b::gfp zebrafish larvae; assay type: in vivo, Danio rerio; settings: myo6b::gfp fish; read-out: dose required to elicit 50% of maximal HC damage (EC50)
Procedure: For drug dose response testing, zebrafish of the wildtype genetic background AB (Table 1) and fish that were transgenic for GFP under the myo6b HC-specific promoter (Tg (myo6b:EGFP), Table 1) were raised as described previously ([Westerfield, 2007]; [Farr et al., 2020]). […]
as §1, with “The resulting images were analyzed for dose-response and drug interaction characteristics with” for “Each image was masked using automated object detection to include only”, “PEPITA software package, which can be found on GitHub (https://github.com/ma-lab-cgidr/PEPITA-tools). […]” for “fish itself.”, “plate. […]” for “plate.”
To further explore the mechanism of macrolide and aminoglycoside antagonism, we fluorescently labeled the aminoglycosides neomycin and gentamicin with Texas Red-X succinimidyl ester to track HC uptake with and without macrolide treatment (Table 1). […] Drug-induced injury was quantified by loss of fluorescence in HCs. […]

Question: With `NC[C@@H]1O[C@H](O[C@H]2[C@@H](O)[C@H](O[C@@H]3[C@@H](O)[C@H](N)C[C@H](N)[C@H]3O[C@H]3O[C@H](CN)[C@@H](O)[C@H](O)[C@H]3N)O[C@@H]2CO)[C@H](N)[C@@H](O)[C@@H]1O` [Neomycin, Neomycin sulfate hydrate] as the compound, how does the “RFU (residual HC fluorescence)” value ([1]; AZM 0 μM, NEO 6.4 μM, 4 h) read?
Answer: Its value is 10%.

Question: What about the “RFU (residual HC fluorescence)” value ([1]; AZM 96 μM + NEO 6.4 μM, 4 h) of the same compound?
Answer: The value was 88%.

Question: What about the “windowed excess over Bliss (wEOB)” value ([1]; AZM + NEO checkerboard, negative = antagonism) of the same compound?
Answer: The value was −0.36.

Question: What about the “dose needed to elicit 75% maximal HC damage (EC75)” value ([1]; NEO alone, 4 h) of the same compound?
Answer: Its value is 3300 nM.

Question: What about the “ototoxic interaction with AZM” value ([1]; co-administration with AZM) of the same compound?
Answer: Its value is “otoprotective antagonistic interactions”.

Question: And the “shift toward antagonism in lateral line HC damage as compared to inhibition of the bacterial species on average” value ([1]; interaction with AZM, zebrafish wEOB vs average of E. coli, M. abscessus, S. aureus)?
Answer: Its value is 44 %pt.

Question: And the EC75 shift ([1]; ototoxin co-administered with azithromycin (AZM) vs administered alone)?
Answer: The EC75 shift was 13 fold.

Question: What about the EC75 shift ([1]; ototoxin co-administered with azithromycin (AZM) vs administered alone, listed as Neomycin (NEO)) of the same compound?
Answer: Its EC75 shift is 13-fold.

Question: What about the EC75 shift ([1]; ototoxin co-administered with erythromycin (ERY) vs administered alone, listed as NEO) of the same compound?
Answer: Its EC75 shift is 8 fold.

Question: What about the EC75 shift ([1]; ototoxin co-administered with erythromycin (ERY) vs administered alone, listed as Neomycin (NEO)) of the same compound?
Answer: Its EC75 shift is 8-fold.

Question: And the “ototoxic interaction with clarithromycin (CLM)” value ([1]; preliminary experiments)?
Answer: Its value is “antagonistic interactions”.

Question: And the pEC50 ([1]; representative experiment, HC damage dose response, read-out: EC50 (PEPITA, relative fluorescence units))?
Answer: Its pEC50 is 5.85.

Question: And the pEC50 [2]?
Answer: The pEC50 was 5.70.

Question: And the pEC50 [3]?
Answer: Its pEC50 is 4.70.
